From ChEMBL document CHEMBL1201862, “PubChem BioAssay data set” (2004)
Activity calls are given as the source filed them.

Tests used:
[1] = target: T1, Heat shock factor protein 1 (Mus musculus, UniProt P38532); assay: HSF1 potentiators in luciferase reporter cells, confirmation, cell-based, NIH3T3, luminescence, dose retest (AID 435004); assay type: functional;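 note: stress induced by proteasome inhibitor MG132 added 30 min after compound; luciferase reporter driven by HSF1 response element in NIH3T3 cells; actives raise luminescence as potentiators of the MG132 stress response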
T1 sequence (P38532 whole entry): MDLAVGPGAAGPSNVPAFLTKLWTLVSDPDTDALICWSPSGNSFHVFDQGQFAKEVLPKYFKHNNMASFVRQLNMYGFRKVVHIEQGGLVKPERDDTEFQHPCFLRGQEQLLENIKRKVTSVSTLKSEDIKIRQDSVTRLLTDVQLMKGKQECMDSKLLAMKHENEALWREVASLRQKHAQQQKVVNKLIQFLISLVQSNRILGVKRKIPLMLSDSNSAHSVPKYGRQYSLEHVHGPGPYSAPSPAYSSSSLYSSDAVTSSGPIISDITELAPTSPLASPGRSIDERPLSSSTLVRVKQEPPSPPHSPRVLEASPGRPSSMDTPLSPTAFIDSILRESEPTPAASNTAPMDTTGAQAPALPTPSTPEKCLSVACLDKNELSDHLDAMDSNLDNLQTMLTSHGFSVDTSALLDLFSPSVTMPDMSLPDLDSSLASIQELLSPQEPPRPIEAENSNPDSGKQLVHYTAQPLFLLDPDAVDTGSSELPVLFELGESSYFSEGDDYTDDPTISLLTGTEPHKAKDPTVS

[2] = inhibitors of intracellular T. cruzi replication, confirmation, NIH3T3 host cells, beta-gal luminescence (AID 2044); assay type: functional, cell-based;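 note: intracellular parasites grown in NIH/3T3 mouse fibroblasts as host cells; luminescent beta-galactosidase reporter signal from transgenic T. cruzi replicating inside host cells; inhibitors lower the luminescence signal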
[3] = cytotoxicity toward NIH3T3 fibroblasts, dose response, counter-screen, cell-based, ATP luminescence, mouse fibroblasts (AID 2010); assay type: functional;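 note: cells exposed to compound for about 90 hours before reading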
[4] = system: Streptococcus; assay: Group A Streptococcus viability loss, dose response, counter-screen for streptokinase expression inhibitor project, luminescence, BacTiterGlo (AID 1915); assay type: functional, organism-based;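 note: potency for reduction of bacterial viability or growth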
[5] = system: Streptococcus sp. 'group A'; assay: growth inhibition of control SK(-) GAS strain, dose response, counter-screen for streptokinase expression inhibitor project, luminescence, kanamycin, BacTiterGlo, confirmation (AID 1900); assay type: functional, organism-based
[6] = target: T2, RNA-binding protein pos-1 (Caenorhabditis elegans, UniProt G5EF15); assay: inhibitors of POS-1/mex-3 RNA binding, dose response, biochemical, fluorescence polarization (AID 1964);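 note: purified POS-1 fused to maltose binding protein made in E. coli; potency of compounds blocking POS-1 binding to fluorescent RNA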
T2 sequence (G5EF15 whole entry): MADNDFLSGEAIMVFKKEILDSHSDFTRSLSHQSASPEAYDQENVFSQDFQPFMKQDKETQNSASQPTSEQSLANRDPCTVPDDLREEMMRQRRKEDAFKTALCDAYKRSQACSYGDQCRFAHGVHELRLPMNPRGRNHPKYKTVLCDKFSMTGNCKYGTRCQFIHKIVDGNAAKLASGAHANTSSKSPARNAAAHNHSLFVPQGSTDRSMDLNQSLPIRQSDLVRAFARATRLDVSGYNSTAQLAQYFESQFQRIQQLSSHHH

[7] = target: T3, Zinc finger protein mex-5 (Caenorhabditis elegans, UniProt Q9XUB2); assay: MEX-5/TCR-2 RNA interaction inhibitors, dose response, biochemical, C. elegans, fluorescence polarization (AID 1960)
T3 sequence (Q9XUB2 whole entry): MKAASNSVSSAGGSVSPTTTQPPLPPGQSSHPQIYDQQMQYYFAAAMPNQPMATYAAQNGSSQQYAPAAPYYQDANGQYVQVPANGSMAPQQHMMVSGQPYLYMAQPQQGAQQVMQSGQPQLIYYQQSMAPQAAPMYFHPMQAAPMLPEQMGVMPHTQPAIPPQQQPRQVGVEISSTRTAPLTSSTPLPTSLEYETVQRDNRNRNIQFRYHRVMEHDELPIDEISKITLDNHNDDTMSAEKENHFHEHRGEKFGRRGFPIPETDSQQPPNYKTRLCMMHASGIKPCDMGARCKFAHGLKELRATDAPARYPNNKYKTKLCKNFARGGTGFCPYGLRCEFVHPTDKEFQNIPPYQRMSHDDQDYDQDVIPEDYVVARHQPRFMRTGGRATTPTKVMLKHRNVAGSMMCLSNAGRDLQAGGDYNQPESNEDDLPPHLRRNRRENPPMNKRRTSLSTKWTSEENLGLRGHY

[8] = target: Cytochrome P450 2C19 (Homo sapiens, UniProt P33261); assay: Cytochrome panel assay with activity outcomes. Panel member name: p450-cyp2c19 Compounds with AC50 equal or less than 10 uM are considered active; assay type: functional
Sequence of Cytochrome P450 2C19 (P33261 whole entry): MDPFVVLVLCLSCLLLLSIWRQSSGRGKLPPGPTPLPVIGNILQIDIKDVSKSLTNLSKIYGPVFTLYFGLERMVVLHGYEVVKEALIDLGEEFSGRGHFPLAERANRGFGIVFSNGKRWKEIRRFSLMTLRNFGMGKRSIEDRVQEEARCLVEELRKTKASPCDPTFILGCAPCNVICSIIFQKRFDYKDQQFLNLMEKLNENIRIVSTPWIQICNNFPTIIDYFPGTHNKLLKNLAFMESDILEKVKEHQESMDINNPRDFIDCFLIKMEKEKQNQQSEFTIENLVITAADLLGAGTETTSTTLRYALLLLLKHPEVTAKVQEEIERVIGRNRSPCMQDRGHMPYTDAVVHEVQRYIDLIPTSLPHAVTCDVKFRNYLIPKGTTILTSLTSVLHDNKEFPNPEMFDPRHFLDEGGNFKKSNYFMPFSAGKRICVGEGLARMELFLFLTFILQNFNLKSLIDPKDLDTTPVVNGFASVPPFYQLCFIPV

[9] = target: T4, Corticotropin-releasing factor receptor 2/Corticotropin-releasing factor-binding protein (Homo sapiens, UniProt P24387+Q13324); assay: activators of CRF receptor 2 with binding protein – uHTS hits, confirmation (AID 602473); assay type: functional; conditions: read-out: EC50_Mean
T4 sequence (Q13324 whole entry): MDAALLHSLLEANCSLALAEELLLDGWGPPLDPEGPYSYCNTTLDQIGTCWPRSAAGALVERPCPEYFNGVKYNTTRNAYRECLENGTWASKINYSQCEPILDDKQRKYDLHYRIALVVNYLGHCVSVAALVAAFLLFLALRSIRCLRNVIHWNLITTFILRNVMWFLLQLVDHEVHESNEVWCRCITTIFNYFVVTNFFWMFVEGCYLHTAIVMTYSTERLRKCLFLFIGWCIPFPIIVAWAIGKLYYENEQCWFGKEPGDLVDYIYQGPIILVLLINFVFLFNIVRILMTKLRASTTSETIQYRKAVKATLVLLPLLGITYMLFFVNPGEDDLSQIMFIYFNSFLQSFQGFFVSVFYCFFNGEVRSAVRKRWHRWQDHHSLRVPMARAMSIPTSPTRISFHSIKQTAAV
T4 sequence (P24387 whole entry): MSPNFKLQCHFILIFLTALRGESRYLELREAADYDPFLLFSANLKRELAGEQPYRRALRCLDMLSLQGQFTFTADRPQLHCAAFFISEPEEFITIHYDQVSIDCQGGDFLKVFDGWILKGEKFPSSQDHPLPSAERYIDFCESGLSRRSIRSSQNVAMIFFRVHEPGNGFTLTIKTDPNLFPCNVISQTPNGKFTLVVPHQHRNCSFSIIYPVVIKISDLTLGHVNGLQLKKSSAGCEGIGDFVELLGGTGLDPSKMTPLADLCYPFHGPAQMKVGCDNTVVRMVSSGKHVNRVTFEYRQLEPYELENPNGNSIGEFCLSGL

## CN1CCN(NC(=O)/C=C/c2ccc(Br)cc2)CC1
[1]
  EC50: 32.3 µM (active)

## COc1ccc(-c2nn(-c3ccccc3)cc2CNC(=O)c2cccc([N+](=O)[O-])c2)cc1
[2]
  EC50: 1.75 µM (active)
[3]
  EC50: > 60 µM (not active)

## CC(C)(C)NC(=O)c1ccc2c(c1)N(CC(=O)N1CCCCC1)C(=O)C(C)(C)O2
[1]
  EC50: > 260 µM (inactive)

## COc1cc2oc3ccc(C#Cc4ccc(N)cc4)cc3c(=O)c2cc1OC
[4]
  EC50: 1.75 µM (active)
[5]
  EC50: 1.18 µM (active)

## CCN(Cc1ccccc1)S(=O)(=O)c1cc(C(=O)NCC2CCCCC2)ccc1OC
[1]
  EC50: > 260 µM (inactive)

## N#Cc1cc(NC(=O)c2ccc(F)cc2)c(O)n2c1nc1ccccc12
[6]
  EC50: 21.7 µM (inconclusive)
[7]
  EC50: 35 µM (active)

## CCSC1=N/C(=C\c2ccccc2)C(=O)N1
[6]
  EC50: > 300 µM (not active)
[7]
  EC50: > 300 µM (not active)

## COc1ccc(C2C(C#N)=C(/N=C/N3CCN(C)CC3)OC3=C2C(=O)CC(C)(C)C3)cc1 (configuration not stated)
[6]
  EC50: > 300 µM (not active)
[7]
  EC50: > 300 µM (not active)

## COc1ccc2cc(/C(C)=N/NC(=S)Nc3cc(S(=O)(=O)N4CCOCC4)ccc3N3CCOCC3)ccc2c1
[2]
  EC50: 0.572 µM (active)
[3]
  EC50: > 60 µM (not active)

## O=C(NNc1cccc(Cl)n1)Nc1ccccc1Cl
[8]; read-out: AC50
  AC50: 6.31 µM (inconclusive)

## O=S(=O)([N-]c1nc2ccccc2nc1-[n+]1ccc(CCCc2ccccc2)cc1)c1cccs1
[6]
  EC50: 35.4 µM (active)
[7]
  EC50: 34 µM (active)

## COc1ccc(/C=N/N=C2/CC(C)(C)Cc3nnc(O)cc32)cc1
[6]
  EC50: 41.4 µM (active)
[7]
  EC50: 38.1 µM (active)

## CNNCc1ccc(C(=O)NC(C)C)cc1 [PROCARBAZINE]
[8]; read-out: AC50
  AC50: 5.01 µM (inconclusive)

## O=C1C2ON(c3ccccc3)C(c3ccncc3)C2C(=O)N1c1ccccc1 (configuration not stated)
[8]; read-out: AC50
  AC50: 0.0708 µM (inconclusive)

## CCCCOC(=O)CCc1c(C)n[nH]c1C
[1]
  EC50: > 260 µM (inactive)

## Cc1ccc(OCCOCCN2CCCC2)c(Br)c1
[2]
  EC50: 0.96 µM (active)
[3]
  EC50: > 30 µM (not active)

## CN(C)c1ncc2nc(-c3ccccc3)c(=O)n(C3CC3)c2n1
[8]; read-out: AC50
  AC50: 39.8 µM (inconclusive)

## CC1=CC(C)(C)N(C(=O)CSc2nnc(N)s2)c2ccccc21
[9]
  EC50: > 53 µM (inactive)

## COCCN1Cc2cccc(C(=O)Nc3cc(OC)ccc3OC)c2C1=O
[9]
  EC50: > 53 µM (inactive)

## CC1(C)S[C@@H]2[C@H](NC(=O)Cc3ccccc3)C(=O)N2[C@H]1C(=O)O [PENICILLIN G]
[4]
  EC50: < 0.06 µM (active)
[5]
  EC50: < 0.06 µM (active)

## O=C(NC1CCCC1)C(c1ccncc1)N(Cc1ccccc1)C(=O)c1ccc(-c2ccccc2)[nH]1 (configuration not stated)
[2]
  EC50: 0.253 µM (active)
[3]
  EC50: > 60 µM (not active)

## COc1ccc(S(=O)(=O)N(C)CC(=O)N2CCC(C(N)=O)CC2)cc1Cl
[1]
  EC50: > 260 µM (inactive)

## COc1ccc(NC(=O)C2CC(=O)N=C(Nc3cccc(C)c3)N2)cc1 (configuration not stated)
[1]
  EC50: > 260 µM (inactive)

## CC(C)COc1ccc(/C=C2/Sc3ccccc3C2=O)cc1
[6]
  EC50: > 300 µM (not active)
[7]
  EC50: > 300 µM (not active)

## Oc1nc2cc3c(cc2cc1C(c1nnnn1C1CCCC1)N1CCCc2ccccc21)OCCO3 (configuration not stated)
[9]
  EC50: > 53 µM (inactive)

## Cc1ccccc1NC(=O)C1CCCN(C(=O)NCc2ccccc2)C1 (configuration not stated)
[1]
  EC50: > 260 µM (inactive)

## O=C(CCN1C(=O)c2ccccc2C1=O)C1=NN[C@@H]2C(=O)N(c3ccc(F)cc3)C(=O)[C@H]12
[1]
  EC50: > 260 µM (inactive)

## Cc1nc(NCCc2c[nH]cn2)c2oc3ccccc3c2n1
[2]
  EC50: 0.305 µM (active)
[3]
  EC50: > 60 µM (not active)

## Cc1cc(C)cc(NC(=O)CN(C)S(=O)(=O)c2c[nH]cn2)c1
[1]
  EC50: > 260 µM (inactive)

## O=C(CN1CCN(c2cccc(Cl)c2)CC1)Nc1ccc([N+](=O)[O-])cc1C(=O)Nc1ccccc1F
[2]
  EC50: 1.01 µM (active)
[3]
  EC50: > 60 µM (not active)

## CCOC(=O)C1CCCN(C2CCN(Cc3nc(-c4ccccc4)no3)CC2)C1 (configuration not stated)
[2]
  EC50: 0.524 µM (active)
[3]
  EC50: > 60 µM (not active)

## Cc1cccc(NC(=O)C(C)N2C(=O)C3C4CC(C(Br)C4Br)C3C2=O)c1 (configuration not stated)
[9]
  EC50: 9.65 µM (active)

## Clc1ccc(CCNc2nc3ccccc3n3nnnc23)cc1
[1]
  EC50: > 260 µM (inactive)

## Cc1ccsc1C(=O)C1CCCN(Cc2cnc(N(C)C)s2)C1 (configuration not stated)
[2]
  EC50: 0.203 µM (active)
[3]
  EC50: > 60 µM (not active)

## COC(=O)CCN(C(=O)c1cc([N+](=O)[O-])cc([N+](=O)[O-])c1)c1ccccn1
[2]
  EC50: 1.38 µM (active)
[3]
  EC50: > 30 µM (not active)

## CCCc1nnc(SCC(=O)N2CCCCC2C)n1CC1CCCO1 (configuration not stated)
[8]; read-out: AC50
  AC50: 25.1 µM (inconclusive)

## O=C(NC1C2CC3CC(C2)CC1C3)C1CC1 (configuration not stated)
[1]
  EC50: > 260 µM (inactive)

## COC(=O)c1cc(OC)c(OC)cc1N=C(S)N1CCCC1
[1]
  EC50: > 260 µM (inactive)

## CCCCc1nnc(NC(=O)C(C)Sc2nc(C)cc(O)n2)s1 (configuration not stated)
[1]
  EC50: > 260 µM (inactive)

## Cc1ccnc(SCC(=O)c2ccc(Br)cc2)c1C#N
[2]
  EC50: 0.932 µM (active)
[3]
  EC50: > 30 µM (not active)

## Cn1c(CN2CCCC2)nc2cc(NC(=O)C3CCCCC3)ccc21
[8]
  AC50: inconclusive

## CCCC(Oc1ccc(Br)cc1)c1nc2c3cc(OC)c(OC)cc3nc(S)n2n1 (configuration not stated)
[4]
  EC50: 3.62 µM (active)
[5]
  EC50: 0.253 µM (active)

## O=C(/C=C/c1ccc(Cl)cc1Cl)N(Cc1ccccc1)C1CCS(=O)(=O)C1 (configuration not stated)
[1]
  EC50: > 260 µM (inactive)
